{
  "source": "patent US11696581B2",
  "about": "“Monoterpenoid/phenylpropanoid-containing compounds and methods of their making and use as seed treatments” (KITTRICH CORPORATION, priority 2016, dated 2023)",
  "type_in_all_cases": "in vivo",
  "key": {"[1]": {"test_system": "Western corn rootworm larvae", "assay": "Western corn rootworm repellency assay (treated vs untreated corn sides)", "details": "one week; for larval mortality (missing larvae declared dead) in repellency arena: one side treated seeds, control 20% declared dead; for repellency: larvae isolated from untreated end vs treated end: choice between treated and untreated corn, 30 larvae, control 52% treated side / 48% untreated side", "excerpt": "Three treated seeds were germinated on one side of a plastic Genpack deli container (32 oz.) 5 days prior to infesting the container with western corn rootworm larvae. On the other side, three untreated seeds were germinated at the same time diagonally across from the treated seeds. Containers were infested by placing 30 rootworm into the middle of the container, on the top of the soil. Rootworm were allowed to choose which side to feed on primarily. Containers infested with western corn rootworm were incubated at 28° C. and 40±10% relative humidity for one week. After one week, containers were removed and soil was mechanically sifted through to quantify the number of living larvae. The total number of larvae present on the treated side vs. the untreated side were averaged from a minimum of three replicates. If repellency was observed (i.e. more rootworm found on the untreated side than the treated side), the experiment was repeated to confirm repellency in subsequent experiments. The number of rootworm missing were also enumerated. Data was averaged from a minimum of three replicates and over 90 larvae used in the total repellency assessment for each compound."}, "[2]": {"test_system": "Western corn rootworm larvae", "assay": "Western corn rootworm survival assay (treated corn seeds)", "details": "corn seeds coated 1% weight/weight; 6 neonatal larvae per cup; 7 days at 28° C.; α=0.05; control survival 67.8±3.7%", "procedure": "Solo® condiment cups with lids. Germination of seeds was performed by carefully applying 500 μL of de-ionized water in order to fully surround each seed with water at the bottom of the cup. Parafilm® wax was placed over the top of the cup to maintain moisture and encourage germination of the seeds. Cups containing moistened seeds were allowed to germinate in the dark for 3 days before the start of the assay. Six live neonatal Western corn rootworm larvae were carefully applied to the roots of germinated corn seeds for each cup. After applying the larvae to the roots, 30 g of dried soil, sieved with a 600-μm Fisher Brand sieve and moistened with 4.5 mL of water, was applied evenly throughout the cup. Organza was placed over the top of the cup and fastened in place with a cup lid. Cups were incubated at 28° C. in 40-50% humidity for 7 days. Surviving corn rootworm were enumerated and the average percentage survival was reported. A minimum of 10 replicates were performed for each treatment."}, "[3]": {"test_system": "corn seeds", "assay": "Germination assays of coated corn seeds", "details": "3 days dark then one week in soil, root mats and radicals emerged or not", "experimental": "Germination of seeds was performed by carefully applying 500 μL of de-ionized water in order to fully surround each seed with water at the bottom of the cup. Parafilm wax was placed over the top of the cup to maintain moisture and encourage germination of the seeds. Cups containing moistened seeds were allowed to germinate in the dark for 3 days before 30 g of soil was introduced into the cup, with 4.5 mL of water added to the soil to moisten it. Seeds were allowed to grow for one week before removing the soil and assessing total germination. Germination was quantified as whether or not root mats and radicals emerged from the moistened seed casing. The total number of seeds in each cup (out of three seeds) that germinated were quantified. Over 4 replicates of this experiment were performed for each monoterpenoid derivative treatment screened."}},
  "data": [
    {"compound": "CCCCCCCCCCCCCC(=O)OCC=Cc1ccccc1", "note": "[cinnamyl myristate]", "values": [
      {"measurement": "larval mortality (missing larvae declared dead) in repellency arena", "setting": "[1]", "result": "higher larval mortality that was statistically significant compared to the control"},
      {"measurement": "larval survival compared to the control", "setting": "[2]", "result": "significantly lower larval survival than the control"}
    ]},
    {"compound": "O=C(/C=C/c1ccccc1)OC1C(OC(=O)/C=C/c2ccccc2)C(OC(=O)/C=C/c2ccccc2)C(OC(=O)/C=C/c2ccccc2)C(OC(=O)/C=C/c2ccccc2)C1OC(=O)/C=C/c1ccccc1", "note": "(stereo not shown) [hexacinnamoyl inositol, hexacinnamoylinositol]", "values": [
      {"measurement": "repellency: larvae isolated from untreated end vs treated end", "setting": "[1]", "result": "higher number of larvae to be isolated from the untreated end compared to the treated end"}
    ]},
    {"compound": "Cc1ccc(C(C)C)c(OC(=O)/C=C/c2ccccc2)c1", "note": "[thymyl cinnamate]", "values": [
      {"measurement": "repellency: larvae isolated from untreated end vs treated end", "setting": "[1]", "result": "higher number of larvae to be isolated from the untreated end compared to the treated end"},
      {"measurement": "larval survival compared to the control", "setting": "[2]", "result": "significantly lower larval survival than the control"}
    ]},
    {"compound": "CC(C)=CCCC(C)CC(=O)OC1C(OC(=O)CC(C)CCC=C(C)C)C(OC(=O)CC(C)CCC=C(C)C)C(OC(=O)CC(C)CCC=C(C)C)C(OC(=O)CC(C)CCC=C(C)C)C1OC(=O)CC(C)CCC=C(C)C", "note": "(stereo not shown) [inositol hexacitronellate, hexacitronelloylinositol]", "values": [
      {"measurement": "larvae associated with the treated corn side", "setting": "[1]; average, choice arena, control approximately 52%", "result": 22, "unit": "%"},
      {"measurement": "repellency: larvae isolated from untreated end vs treated end", "setting": "[1]", "result": "higher number of larvae to be isolated from the untreated end compared to the treated end"},
      {"measurement": "larval survival compared to the control", "setting": "[2]", "result": "significantly lower larval survival than the control"},
      {"measurement": "inhibition of germination of corn seedlings", "setting": "[3]", "result": "most significant inhibitors of germination of corn seedlings"}
    ]},
    {"compound": "O=C(O)CCC(=O)OC/C=C/c1ccccc1", "note": "[cinnamyl hydrogen succinate]", "values": [
      {"measurement": "larval survival compared to the control", "setting": "[2]", "result": "significantly lower larval survival than the control"},
      {"measurement": "inhibition of germination of corn seedlings", "setting": "[3]", "result": "most significant inhibitors of germination of corn seedlings"}
    ]},
    {"compound": "CC(C)=CCCC(C)CCOC(=O)CC(C)CCC=C(C)C", "note": "(stereo not shown) [citronellyl citronellate]", "values": [
      {"measurement": "larval survival compared to the control", "setting": "[2]", "result": "significantly lower larval survival than the control"}
    ]},
    {"compound": "eugenyl succinate", "values": [
      {"measurement": "repellency: larvae isolated from untreated end vs treated end", "setting": "[1]", "result": "higher number of larvae to be isolated from the untreated end compared to the treated end"},
      {"measurement": "larval mortality (missing larvae declared dead) in repellency arena", "setting": "[1]", "result": "higher larval mortality that was statistically significant compared to the control"},
      {"measurement": "larval survival compared to the control", "setting": "[2]", "result": "significantly lower larval survival than the control"}
    ]},
    {"compound": "Cc1ccc(C(C)C)c(OC(=O)CCC(=O)O)c1", "note": "[thymyl hydrogen succinate]", "values": [
      {"measurement": "larval survival compared to the control", "setting": "[2]", "result": "significantly lower larval survival than the control"}
    ]},
    {"compound": "C=CCc1ccc(OC(=O)CC(C)CCC=C(C)C)c(OC)c1", "note": "(stereo not shown) [eugenyl citronellate]", "values": [
      {"measurement": "inhibition of germination of corn seedlings", "setting": "[3]", "result": "most significant inhibitors of germination of corn seedlings"}
    ]},
    {"compound": "CC(C)=CCCC(C)CC(=O)OCCOC(=O)CC(C)CCC=C(C)C", "note": "(stereo not shown) [ethylene dicitronellate, Ethylene dicitronellate]", "values": [
      {"measurement": "larval mortality (missing larvae declared dead) in repellency arena", "setting": "[1]", "result": "higher larval mortality that was statistically significant compared to the control"},
      {"measurement": "larval survival compared to the control", "setting": "[2]", "result": "significantly lower larval survival than the control"}
    ]}
  ]
}
